This passage reports IC50 results from patent US12544391B2, “CD73 inhibitors” (ORIC Pharmaceuticals, Inc., priority 2019, dated 2026).

For the experiment, the target named is T1, CD73 (Homo sapiens, UniProt P21589).
T1 sequence (P21589 27-549): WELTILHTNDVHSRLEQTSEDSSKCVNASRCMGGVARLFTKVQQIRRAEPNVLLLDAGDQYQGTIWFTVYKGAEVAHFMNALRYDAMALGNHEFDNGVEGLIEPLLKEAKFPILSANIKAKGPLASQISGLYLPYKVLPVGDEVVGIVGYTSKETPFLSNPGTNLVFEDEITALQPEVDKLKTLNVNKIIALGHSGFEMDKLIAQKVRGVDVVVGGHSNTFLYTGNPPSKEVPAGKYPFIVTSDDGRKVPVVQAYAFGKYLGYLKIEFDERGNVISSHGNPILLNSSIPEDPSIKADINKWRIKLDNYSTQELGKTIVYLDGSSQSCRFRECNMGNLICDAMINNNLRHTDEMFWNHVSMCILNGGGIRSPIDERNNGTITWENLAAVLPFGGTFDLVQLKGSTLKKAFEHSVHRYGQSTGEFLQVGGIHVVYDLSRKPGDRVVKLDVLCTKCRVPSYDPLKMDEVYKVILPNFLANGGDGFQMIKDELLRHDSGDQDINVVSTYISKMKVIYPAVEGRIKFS
The experiment can be described thus: CD73 biochemical assay, Malachite Green detection of AMP hydrolysis. The conditions noted are these: CD73 320 pM, AMP 15 μM, Malachite Green readout. The procedure:
Assay Reaction Conditions
• Assay Volume: 70 μl • Reaction Volume: 50 μl • CD73: 0.3208 nM • AMP: 15 μM • Assay Buffer: 2 5 mM Tris-HCL, pH 7.4, 0.01% Brij-35, 0.01% BSA, 5 mM MgCl2 Assay Procedure:
A clear 384 well plate was used in this assay.
Made dose titration of testing compounds in assay buffer, 10 points ½ log titrations in duplicates starting at 100 μM. Total volume for each well was 25 μl, with CD73 then added to each well for a final concentration of 320 pM. The solution was then incubated at RT for 15 min. 25 μl of AMP was added to each well for a final concentration of 15 μM, and then incubated at rt for 10 min. 10 μl of Malachite Green Reagent A was then added and allowed to incubate at rt for 10 min. 10 μl of Malachite Green Reagent B was then added and allowed to incubate at rt for 45 min. The absorbance for each sample was read on an Envision plate reader using excitation filter: Cy5 […].
The ability of the compounds disclosed herein to inhibit CD73 activity was quantified and the respective IC50 values were determined. Table 2 provides the biochemical IC50 values of compounds disclosed herein.
In turn, `COC[C@](Cc1nn[nH]n1)(OC[C@H]1O[C@@H](c2ccc3c(NC4CCCC4)nc(Cl)nn23)[C@H](O)[C@@H]1O)P(=O)(O)O` (single isomer, unassigned) [Example 3] yielded an IC50 of at most 0.5 nM.
Under `O=P(O)(O)[C@@](CO)(Cc1nn[nH]n1)OC[C@H]1O[C@@H](c2ccc3c(NC4CCCC4)nc(Cl)nn23)[C@H](O)[C@@H]1O` [Example 1, ((R)-2-(((2R,3S,4R,5S)-5-(2-Chloro-4-(cyclopentylamino)pyrrolo[2,1-f][1,2,4]triazin-7-yl)-3,4-dihydroxytetrahydrofuran-2-yl)methoxy)-1-hydroxy-3-(2H-tetrazol-5-yl)propan-2-yl)phosphonic acid] stands at most 0.5 nM; under `O=P(O)(O)[C@](CO)(Cc1nn[nH]n1)OC[C@H]1O[C@@H](c2ccc3c(NC4CCCC4)nc(Cl)nn23)[C@H](O)[C@@H]1O` [Example 2, ((S)-2-(((2R,3S,4R,5S)-5-(2-Chloro-4-(cyclopentylamino)pyrrolo[2,1-f][1,2,4]triazin-7-yl)-3,4-dihydroxytetrahydrofuran-2-yl)methoxy)-1-hydroxy-3-(2H-tetrazol-5-yl)propan-2-yl)phosphonic acid], 1 to 100 nM; under `COC[C@@](Cc1nn[nH]n1)(OC[C@H]1O[C@@H](c2ccc3c(NC4CCCC4)nc(Cl)nn23)[C@H](O)[C@@H]1O)P(=O)(O)O` [Example 4, ((S)-2-(((2R,3S,4R,5S)-5-(2-Chloro-4-(cyclopentylamino)pyrrolo[2,1-f][1,2,4]triazin-7-yl)-3,4-dihydroxytetrahydrofuran-2-yl)methoxy)-1-methoxy-3-(2H-tetrazol-5-yl)propan-2-yl)phosphonic acid], 1 to 100 nM.
Consider `COC[C@](CO)(OC[C@H]1O[C@@H](c2ccc3c(NC4CCCC4)nc(Cl)nn23)[C@H](O)[C@@H]1O)P(=O)(O)O` [Example 6, ((R)-2-(((2R,3S,4R,5S)-5-(2-Chloro-4-(cyclopentylamino)pyrrolo[2,1-f][1,2,4]triazin-7-yl)-3,4-dihydroxytetrahydrofuran-2-yl)methoxy)-1-hydroxy-3-methoxypropan-2-yl)phosphonic acid], for which the IC50 is at most 0.5 nM.
Take `COC[C@@](CO)(OC[C@H]1O[C@@H](c2ccc3c(NC4CCCC4)nc(Cl)nn23)[C@H](O)[C@@H]1O)P(=O)(O)O` [Example 7, ((S)-2-(((2R,3S,4R,5S)-5-(2-chloro-4-(cyclopentylamino)pyrrolo[2,1-f][1,2,4]triazin-7-yl)-3,4-dihydroxytetrahydrofuran-2-yl)methoxy)-1-hydroxy-3-methoxypropan-2-yl)phosphonic acid]: the IC50 was in the range of 1 to 100 nM.
As for `COCC(OC[C@H]1O[C@@H](c2ccc3c(NC4CCCC4)nc(Cl)nn23)[C@H](O)[C@@H]1O)(C(=O)O)P(=O)(O)O` (stereo partly drawn) [Example 8, 2-(((2R,3S,4R,5S)-5-(2-Chloro-4-(cyclopentylamino)pyrrolo[2,1-f][1,2,4]triazin-7-yl)-3,4-dihydroxytetrahydrofuran-2-yl)methoxy)-3-methoxy-2-phosphonopropanoic acid], the concentration for half-maximal inhibition (IC50) is 0.5 to 1 nM.
In turn, `COC[C@@](COCc1nn[nH]n1)(OC[C@H]1O[C@@H](c2ccc3c(NC4CCCC4)nc(Cl)nn23)[C@H](O)[C@@H]1O)P(=O)(O)O` [Example 10, ((R)-1-((2H-tetrazol-5-yl)methoxy)-2-(((2R,3S,4R,5S)-5-(2-chloro-4-(cyclopentylamino)pyrrolo[2,1-f][1,2,4]triazin-7-yl)-3,4-dihydroxytetrahydrofuran-2-yl)methoxy)-3-methoxypropan-2-yl)phosphonic acid] came in with a half-inhibitory concentration (IC50) of 1 to 100 nM.
Take `O=P(O)(O)C(CO)(CO)OC[C@H]1O[C@@H](c2ccc3c(NC4CCCC4)nc(Cl)nn23)[C@H](O)[C@@H]1O` [Example 11, (2-(((2R,3S,4R,5S)-5-(2-chloro-4-(cyclopentylamino)pyrrolo[2,1-f][1,2,4]triazin-7-yl)-3,4-dihydroxytetrahydrofuran-2-yl)methoxy)-1,3-dihydroxypropan-2-yl)phosphonic acid]: the IC50 is 0.5 to 1 nM.
`O=P(O)(O)C(CO)OC[C@H]1O[C@@H](c2ccc3c(NC4CCCC4)nc(Cl)nn23)[C@H](O)[C@@H]1O` (stereo partly drawn) [Example 13, (1-(((2R,3S,4R,5S)-5-(2-chloro-4-(cyclopentylamino)pyrrolo[2,1-f][1,2,4]triazin-7-yl)-3,4-dihydroxytetrahydrofuran-2-yl)methoxy)-2-hydroxyethyl)phosphonic acid] returned an IC50 of 1 to 100 nM.
The molecule `COCC(OC[C@H]1O[C@@H](c2ccc3c(NC4CCCC4)nc(Cl)nn23)[C@H](O)[C@@H]1O)P(=O)(O)O` (stereo partly drawn) [Example 14, (1-(((2R,3S,4R,5S)-5-(2-chloro-4-(cyclopentylamino)pyrrolo[2,1-f][1,2,4]triazin-7-yl)-3,4-dihydroxytetrahydrofuran-2-yl)methoxy)-2-methoxyethyl)phosphonic acid] yielded an IC50 of 0.5 to 1 nM.
Then `O=P(O)(O)[C@](CO)(COCc1nn[nH]n1)OC[C@H]1O[C@@H](c2ccc3c(NC4CCCC4)nc(Cl)nn23)[C@H](O)[C@@H]1O` [Example 16, ((R)-1-((2H-tetrazol-5-yl)methoxy)-2-(((2R,3S,4R,5S)-5-(2-chloro-4-(cyclopentylamino)pyrrolo[2,1-f][1,2,4]triazin-7-yl)-3,4-dihydroxytetrahydrofuran-2-yl)methoxy)-3-hydroxypropan-2-yl)phosphonic acid], with 0.5 to 1 nM.
`O=P(O)(O)C(CO)(CO)OC[C@H]1O[C@@H](c2cnn3c(NC4CCCC4)cc(Cl)nc23)[C@H](O)[C@@H]1O` [Example 17, (2-(((2R,3S,4R,5S)-5-(5-Chloro-7-(cyclopentylamino)pyrazolo[1,5-a]pyrimidin-3-yl)-3,4-dihydroxytetrahydrofuran-2-yl)methoxy)-1,3-dihydroxypropan-2-yl)phosphonic acid] returned an IC50 of 0.5 to 1 nM.
With `O=P(O)(O)C(CO)(CO)OC[C@H]1O[C@H](c2cnn3c(NC4CCCC4)cc(Cl)nc23)[C@H](O)[C@@H]1O` [Example 18, (2-(((2R,3S,4R,5R)-5-(5-Chloro-7-(cyclopentylamino)pyrazolo[1,5-a]pyrimidin-3-yl)-3,4-dihydroxytetrahydrofuran-2-yl)methoxy)-1,3-dihydroxypropan-2-yl)phosphonic acid], the IC50 is 1 to 100 nM.
`CC(CO)(OC[C@H]1O[C@@H](c2ccc3c(NC4CCCC4)nc(Cl)nn23)[C@H](O)[C@@H]1O)P(=O)(O)O` (stereo partly drawn) [Example 19, (2-(((2R,3S,4R,5S)-5-(2-chloro-4-(cyclopentylamino)pyrrolo[2,1-f][1,2,4]triazin-7-yl)-3,4-dihydroxytetrahydrofuran-2-yl)methoxy)-1-hydroxypropan-2-yl)phosphonic acid] gave an IC50 of 1 to 100 nM.
On to `O=P(O)(O)C(CO)(COCc1nn[nH]n1)OC[C@H]1O[C@@H](c2ccc3c(NC4CCCC4)nc(Cl)nn23)[C@H](O)[C@@H]1O` (stereo partly drawn) [Example 20, (1-((2H-tetrazol-5-yl)methoxy)-2-(((2R,3S,4R,5S)-5-(2-chloro-4-(cyclopentylamino)pyrrolo[2,1-f][1,2,4]triazin-7-yl)-3,4-dihydroxytetrahydrofuran-2-yl)methoxy)-3-hydroxypropan-2-yl)phosphonic acid], for which the IC50 is at most 0.5 nM.
`O=P(O)(O)C(CO)(Cc1nn[nH]n1)OC[C@H]1O[C@@H](c2ccc3c(NC4CCCC4)nc(CO)nn23)[C@H](O)[C@@H]1O` (some centres unmarked) [Example 21] yielded an IC50 of 0.5 to 1 nM.
As to `COCC(C)(OC[C@H]1O[C@@H](c2ccc3c(NC4CCCC4)nc(Cl)nn23)[C@H](O)[C@@H]1O)P(=O)(O)O` (stereo partly drawn) [Example 22, (2-(((2R,3S,4R,5S)-5-(2-chloro-4-(cyclopentylamino)pyrrolo[2,1-f][1,2,4]triazin-7-yl)-3,4-dihydroxytetrahydrofuran-2-yl)methoxy)-1-methoxypropan-2-yl)phosphonic acid], the IC50 is at most 0.5 nM.
Under `O=C(O)COCC(CO)(OC[C@H]1O[C@@H](c2ccc3c(NC4CCCC4)nc(Cl)nn23)[C@H](O)[C@@H]1O)P(=O)(O)O` (stereo partly drawn) [Example 23, 2-(2-(((2R,3S,4R,5S)-5-(2-chloro-4-(cyclopentylamino)pyrrolo[2,1-f][1,2,4]triazin-7-yl)-3,4-dihydroxytetrahydrofuran-2-yl)methoxy)-3-hydroxy-2-phosphonopropoxy)acetic acid] stands 0.5 to 1 nM; under `CCOC(=O)COCC(CO)(OC[C@H]1O[C@@H](c2ccc3c(NC4CCCC4)nc(Cl)nn23)[C@H](O)[C@@H]1O)P(=O)(O)O` (stereo partly drawn) [Example 24, (2-(((2R,3S,4R,5S)-5-(2-chloro-4-(cyclopentylamino)pyrrolo[2,1-f][1,2,4]triazin-7-yl)-3,4-dihydroxytetrahydrofuran-2-yl)methoxy)-1-(2-ethoxy-2-oxoethoxy)-3-hydroxypropan-2-yl)phosphonic acid], 1 to 100 nM.
